Measured values taken from patent US10294202B2, “Pyrrolidinones as herbicides” (FMC Corporation, priority 2013, dated 2019).

Legend:
barnyardgrass [1] = test: Test A pre-/postemergence herbicide test; format: in vivo, Echinochloa crus-galli
Procedure, shortened: (§1)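 Seeds sown in loam soil/sand blend received a preemergence directed soil spray of test chemical in non-phytotoxic solvent with surfactant; postemergence plants (2–10 cm, one- to two-leaf stage) were sprayed with the same formulation. After about 10 days in greenhouse, injury was rated visually versus untreated controls, 0 (no effect) to 100 (complete control).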

kochia = test: Test A pre-/postemergence herbicide test; format: in vivo, Kochia scoparia; settings: for Plant response rating, Kochia: 0 to 100 scale
Procedure, shortened: as §1

ragweed = test: Test A pre-/postemergence herbicide test; format: in vivo, Ambrosia elatior; settings: for Plant response rating, Ragweed: 0 to 100 scale
Procedure, shortened: as §1

ryegrass, Italian = test: Test A pre-/postemergence herbicide test; format: in vivo, Lolium multiflorum; settings: for Plant response rating, Ryegrass, Italian: 0 to 100 scale
Procedure, shortened: as §1

giant foxtail = test: Test A pre-/postemergence herbicide test; format: in vivo, Setaria faberii; settings: for Plant response rating, Foxtail, Giant: 0 to 100 scale
Procedure, shortened: as §1

pigweed = test: Test A pre-/postemergence herbicide test; format: in vivo, Amaranthus retroflexus; settings: for Plant response rating, Pigweed: 0 to 100 scale
Procedure, shortened: as §1

wheat = test: Test A pre-/postemergence herbicide test; format: in vivo, Triticum aestivum; settings: Postemergence; for Plant response rating, Wheat: 125 g ai/ha, 0 to 100 scale; for Wheat plant response rating (0 to 100 scale, 0 is no effect, 100 is complete control): 500 g ai/ha
Procedure, shortened: as §1

corn = test: Test A pre-/postemergence herbicide test; format: in vivo, Zea mays; settings: Postemergence; for Plant response rating, Corn: 125 g ai/ha, 0 to 100 scale; for Corn plant response rating (0 to 100 scale, 0 is no effect, 100 is complete control): 500 g ai/ha
Procedure, shortened: as §1

blackgrass = test: Test A postemergence herbicide test; format: in vivo, Alopecurus myosuroides; settings: for Plant response rating, Blackgrass: 125 g ai/ha, 0 to 100 scale; for Blackgrass plant response rating (0 to 100 scale, 0 is no effect, 100 is complete control): 500 g ai/ha
Procedure, shortened: (§2)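 Injury was rated visually about 10 days after treatment on a 0 (no effect) to 100 (complete control) scale, compared with untreated plants. Test chemicals were sprayed postemergence onto greenhouse plants 2–10 cm high at one to two leaves, grown in a loam–sand blend.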

galium = test: Test A postemergence herbicide test; format: in vivo, Galium aparine; settings: for Plant response rating, Galium: 125 g ai/ha, 0 to 100 scale; for Galium plant response rating (0 to 100 scale, 0 is no effect, 100 is complete control): 500 g ai/ha
Procedure, shortened: as §2

rice = test: Test B flooded paddy test; format: in vivo, Oryza sativa; settings: Flood, scale of 0 to 100 where 0 is no effect and 100 is complete control
Procedure, shortened: (§3)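 Scored visually 0–100 (0 no effect, 100 complete control) versus controls after 13 to 15 greenhouse days. Treatment: compound added to paddy water kept 3 cm above soil, on 2-leaf-stage plants.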

sedge, umbrella = test: Test B flooded paddy test; format: in vivo, Cyperus difformis; settings: Flood, scale of 0 to 100 where 0 is no effect and 100 is complete control
Procedure, shortened: as §3

ducksalad = test: Test B flooded paddy test; format: in vivo, Heteranthera limosa; settings: Flood, scale of 0 to 100 where 0 is no effect and 100 is complete control
Procedure, shortened: as §3

barnyardgrass [2] = test: Test B flooded paddy test; format: in vivo, Echinochloa crus-galli; settings: Flood, scale of 0 to 100 where 0 is no effect and 100 is complete control
Procedure, shortened: as §3

[3] = 125 g ai/ha, visual rating, 0 to 100 scale, 0 no effect, 100 complete control, approximately 10 days, preemergence
[4] = Postemergence, 125 g ai/ha, 0 to 100 scale, 0 is no effect, 100 is complete control
[5] = preemergence, 500 g ai/ha, 0 to 100 scale, 0 is no effect and 100 is complete control
[6] = 125 g ai/ha, visual rating, 0 no effect, 100 complete control, approximately 10 days, preemergence
[7] = Postemergence, 125 g ai/ha, 0 is no effect, 100 is complete control
[8] = preemergence, 500 g ai/ha, 0 is no effect and 100 is complete control
[9] = 0 is no effect, 100 is complete control
[10] = preemergence, 500 g ai/ha, 0 to 100 scale (0 no effect, 100 complete control)
[11] = Postemergence, 125 g ai/ha, 0 no effect, 100 complete control
[12] = 0 no effect, 100 complete control

SMILES	Plant response rating, Barnyardgrass (barnyardgrass [1]; [3])	Plant response rating, Barnyardgrass (barnyardgrass [1]; [4])	Barnyardgrass plant response rating (0 to 100 scale, 0 is no effect, 100 is complete control) (barnyardgrass [1]; Postemergence, 500 g ai/ha)	Plant response rating, Kochia (kochia; [6])	Plant response rating, Kochia (kochia; [7])	Kochia plant response rating (0 to 100 scale, 0 is no effect, 100 is complete control) (kochia; Postemergence, 500 g ai/ha)	Plant response rating, Kochia (kochia; [8])	Plant response rating, Ragweed (ragweed; [6])	Plant response rating, Ragweed (ragweed; [7])	Ragweed plant response rating (0 to 100 scale, 0 is no effect, 100 is complete control) (ragweed; Postemergence, 500 g ai/ha)	Plant response rating, Ryegrass, Italian (ryegrass, Italian; [6])	Ryegrass, Italian plant response rating (0 to 100 scale, 0 is no effect, 100 is complete control) (ryegrass, Italian; Postemergence, 500 g ai/ha)	Plant response rating, Foxtail, Giant (giant foxtail; [6])	Foxtail, Giant plant response rating (0 to 100 scale, 0 is no effect, 100 is complete control) (giant foxtail; Postemergence, 500 g ai/ha)	Plant response rating, Pigweed (pigweed; [6])	Pigweed plant response rating (0 to 100 scale, 0 is no effect, 100 is complete control) (pigweed; Postemergence, 500 g ai/ha)	Wheat plant response rating (0 to 100 scale, 0 is no effect, 100 is complete control) (wheat)	Corn plant response rating (0 to 100 scale, 0 is no effect, 100 is complete control) (corn)	Blackgrass plant response rating (0 to 100 scale, 0 is no effect, 100 is complete control) (blackgrass)	Galium plant response rating (0 to 100 scale, 0 is no effect, 100 is complete control) (galium)	also measured
CC(C)(C)c1cccc(C2CNC(=O)C2C(=O)Nc2ccccc2C(F)(F)F)c1 (racemic) [Compound 201]	0	0	30	0	0	0	0	0	0	0	0	0	20	0	0	0	0	0	0	0	Plant response rating, Barnyardgrass (barnyardgrass [1]; [5]): 20; Plant response rating, Ragweed (ragweed; [8]): 0; Plant response rating, Ryegrass, Italian (ryegrass, Italian; [7]): 0; Plant response rating, Ryegrass, Italian (ryegrass, Italian; [8]): 0; Plant response rating, Foxtail, Giant (giant foxtail; [7]): 0; Plant response rating, Foxtail, Giant (giant foxtail; [8]): 30; Plant response rating, Pigweed (pigweed; [7]): 0; Plant response rating, Pigweed (pigweed; [8]): 0; Plant response rating, Wheat (wheat; [9]): 0; Plant response rating, Corn (corn; [9]): 0; Plant response rating, Blackgrass (blackgrass; [9]): 0; Plant response rating, Galium (galium; [9]): 0; Plant response rating, Rice (rice; 1000 g ai/ha): 0; Plant response rating, Sedge, Umbrella (sedge, umbrella; 1000 g ai/ha): 0; Plant response rating, Ducksalad (ducksalad; 1000 g ai/ha): 70; Plant response rating, Barnyardgrass (barnyardgrass [2]; 1000 g ai/ha): 20
Cc1cc(C2CNC(=O)C2C(=O)Nc2ccccc2Cl)ccc1F (racemic) [Compound 143]	60		90	30		0		0		0	0	0	30	30	0	0	0	0	0	40	Plant response rating, Barnyardgrass (barnyardgrass [1]; Postemergence, 125 g ai/ha, 0 to 100 scale, 0 no effect, 100 complete control): 50; Plant response rating, Barnyardgrass (barnyardgrass [1]; [10]): 90; Plant response rating, Kochia (kochia; [11]): 0; Plant response rating, Kochia (kochia; preemergence, 500 g ai/ha): 30; Plant response rating, Ragweed (ragweed; [11]): 0; Plant response rating, Ragweed (ragweed; preemergence, 500 g ai/ha): 0; Plant response rating, Ryegrass, Italian (ryegrass, Italian; [11]): 0; Plant response rating, Ryegrass, Italian (ryegrass, Italian; preemergence, 500 g ai/ha): 0; Plant response rating, Foxtail, Giant (giant foxtail; [11]): 20; Plant response rating, Foxtail, Giant (giant foxtail; preemergence, 500 g ai/ha): 90; Plant response rating, Pigweed (pigweed; [11]): 0; Plant response rating, Pigweed (pigweed; preemergence, 500 g ai/ha): 0; Plant response rating, Wheat (wheat; [12]): 0; Plant response rating, Corn (corn; [12]): 0; Plant response rating, Blackgrass (blackgrass; [12]): 0; Plant response rating, Galium (galium; [12]): 0; Plant response rating, Rice (rice; 500 g ai/ha): 0; Plant response rating, Sedge, Umbrella (sedge, umbrella; 500 g ai/ha): 0; Plant response rating, Ducksalad (ducksalad; 500 g ai/ha): 100; Plant response rating, Barnyardgrass (barnyardgrass [2]; 500 g ai/ha): 35
O=C1NCC(c2ccc(OC(F)F)cc2)C1C(=O)Nc1ccccc1Cl (stereo not drawn) [Compound 226]	50	30	80	0	30	50	30	0	0	0	0	20	70	80	0	0	0	0	30	20	Plant response rating, Barnyardgrass (barnyardgrass [1]; [5]): 90; Plant response rating, Ragweed (ragweed; [8]): 0; Plant response rating, Ryegrass, Italian (ryegrass, Italian; [7]): 0; Plant response rating, Ryegrass, Italian (ryegrass, Italian; [8]): 20; Plant response rating, Foxtail, Giant (giant foxtail; [7]): 70; Plant response rating, Foxtail, Giant (giant foxtail; [8]): 90; Plant response rating, Pigweed (pigweed; [7]): 0; Plant response rating, Pigweed (pigweed; [8]): 30; Plant response rating, Wheat (wheat; [9]): 0; Plant response rating, Corn (corn; [9]): 0; Plant response rating, Blackgrass (blackgrass; [9]): 20; Plant response rating, Galium (galium; [9]): 20; Plant response rating, Rice (rice; 500 g ai/ha): 0; Plant response rating, Sedge, Umbrella (sedge, umbrella; 500 g ai/ha): 0; Plant response rating, Ducksalad (ducksalad; 500 g ai/ha): 100; Plant response rating, Barnyardgrass (barnyardgrass [2]; 500 g ai/ha): 0
O=C1NCC(c2ccc3c(c2)OC(F)(F)O3)C1C(=O)Nc1ccccc1F (racemic) [Compound 161]	90	90	90	20	20	60	60	20	0	30	0	50	90	90	20	60	40	60	50	60	Plant response rating, Barnyardgrass (barnyardgrass [1]; [10]): 90; Plant response rating, Ragweed (ragweed; [8]): 70; Plant response rating, Ryegrass, Italian (ryegrass, Italian; [7]): 20; Plant response rating, Ryegrass, Italian (ryegrass, Italian; [8]): 50; Plant response rating, Foxtail, Giant (giant foxtail; [7]): 90; Plant response rating, Foxtail, Giant (giant foxtail; preemergence, 500 g ai/ha): 90; Plant response rating, Pigweed (pigweed; [7]): 20; Plant response rating, Pigweed (pigweed; [8]): 70; Plant response rating, Wheat (wheat; [9]): 20; Plant response rating, Corn (corn; [9]): 10; Plant response rating, Blackgrass (blackgrass; [9]): 50; Plant response rating, Galium (galium; [9]): 50; Plant response rating, Rice (rice; 500 g ai/ha): 10; Plant response rating, Sedge, Umbrella (sedge, umbrella; 500 g ai/ha): 0; Plant response rating, Ducksalad (ducksalad; 500 g ai/ha): 100; Plant response rating, Barnyardgrass (barnyardgrass [2]; 500 g ai/ha): 65
